# Columns and labels:
# Test in all cases: relative viability (nuclei count vs DMSO), 5 days (fraction); higher = more cells survive
# [1] = compound: Cn1cc(-c2cnn3c(N)c(Br)c([C@@H]4CCCNC4)nc23)cn1 + CC(C)C[C@H](NC(=O)[C@H](Cc1ccccc1)NC(=O)c1cnccn1)B(O)O [Bortezomib] (partner 0.002 µM)
# Procedure, shortened: (§1)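 Lung cancer cell lines in 1536-well plates were dosed by pin tool the day after seeding, either with one drug alone or with a fixed anchor-drug dose plus five library-drug doses (not always all listed) in √10 steps. After 5 days, cells were fixed and their nuclei stained in one step (final 0.05% Triton X-100, 1% formaldehyde, 1 ug/ml Hoechst), then counted on 4× images. Relative viability is the nuclei count in treated wells divided by that in vehicle wells. Values are medians of duplicate plates.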
# [2] = compound: Cn1cc(-c2cnn3c(N)c(Br)c([C@@H]4CCCNC4)nc23)cn1 + CS(=O)(=O)CCNCc1ccc(-c2ccc3ncnc(Nc4ccc(OCc5cccc(F)c5)c(Cl)c4)c3c2)o1 [Lapatinib] (partner 2 µM)
# Procedure, shortened: as §1
# [3] = compound: Cn1cc(-c2cnn3c(N)c(Br)c([C@@H]4CCCNC4)nc23)cn1 + NC(=O)Nc1cc(-c2cccc(F)c2)sc1C(=O)N[C@H]1CCCNC1 [AZD7762] (partner 0.2 µM)
# Procedure, shortened: as §1
# [4] = compound: Cn1cc(-c2cnn3c(N)c(Br)c([C@@H]4CCCNC4)nc23)cn1 + Nc1ncn([C@H]2C[C@H](O)[C@@H](CO)O2)c(=O)n1 [Decitabine] (partner 2 µM)
# Procedure, shortened: as §1
Cell Line,relative viability ([1]; first compound 0.05 µM),relative viability ([1]; first compound 0.1581 µM),relative viability ([1]; first compound 0.5 µM),relative viability ([1]; first compound 1.581 µM),relative viability ([1]; first compound 5 µM),relative viability ([2]; first compound 0.05 µM),relative viability ([2]; first compound 0.1581 µM),relative viability ([2]; first compound 0.5 µM),relative viability ([2]; first compound 1.581 µM),relative viability ([2]; first compound 5 µM),relative viability ([3]; first compound 0.05 µM),relative viability ([3]; first compound 0.1581 µM),relative viability ([3]; first compound 0.5 µM),relative viability ([3]; first compound 1.581 µM),relative viability ([3]; first compound 5 µM),relative viability ([4]; first compound 0.05 µM),relative viability ([4]; first compound 0.1581 µM),relative viability ([4]; first compound 0.5 µM),relative viability ([4]; first compound 1.581 µM),relative viability ([4]; first compound 5 µM)
201T,1.04,1.09,1.1,1.07,1.17,1,1.09,1.02,0.951,1.11,0.597,0.618,0.661,0.506,0.498,0.809,0.856,0.844,0.882,0.93
A549,,,,,,1.03,1.11,0.909,0.795,0.643,,,,,,0.323,0.281,0.279,0.278,0.116
A-427,1,0.937,1.2,0.961,0.743,0.979,1.14,0.986,0.839,0.959,0.72,0.569,0.566,0.502,0.344,0.534,0.591,0.555,0.544,0.33
ABC-1,0.364,0.284,0.298,0.331,0.287,1.18,1.18,1.18,1.26,1.04,0.689,0.984,0.755,0.599,0.5,,1.3,1.02,1.18,0.731
BEN,0.688,0.824,0.729,0.774,0.553,0.84,0.762,0.655,0.736,0.516,0.659,0.69,0.688,0.667,0.533,0.701,0.763,0.663,0.709,0.629
CAL-12T,0.728,0.899,0.775,0.718,0.315,0.713,0.735,0.723,0.618,0.395,0.541,0.531,0.538,0.494,0.239,,,,,
COR-L23,1.08,1.23,0.913,0.646,0.46,0.966,1.26,1.03,0.471,0.445,,,,,,0.407,0.489,0.481,0.354,0.248
COR-L 105,0.757,0.721,0.768,0.613,0.611,0.323,0.386,0.393,0.354,0.311,,,,,,0.66,0.703,0.563,0.597,0.608
Calu-6,1.17,0.733,0.685,0.363,0.188,1.2,0.745,0.678,0.329,0.193,,,,,,,,,,
ChaGo-K-1,0.909,1.01,0.826,0.717,0.682,,,,,,0.843,0.801,0.866,0.761,0.755,0.52,0.559,0.526,0.563,0.601
EKVX,1.06,1.16,0.987,0.836,1.07,0.204,0.215,0.192,0.193,0.184,0.76,0.75,0.711,0.603,0.537,0.768,0.414,0.343,0.571,0.41
EMC-BAC-2,1.04,1.14,1.13,1.02,1.15,0.843,0.987,0.961,0.852,0.889,1.05,1.26,1.08,1.04,0.821,0.976,1.02,0.981,0.827,0.887
EPLC-272H,0.853,0.891,0.933,0.769,0.82,0.849,0.991,0.843,0.688,0.674,0.13,0.195,0.179,0.17,0.178,0.342,0.304,0.336,0.303,0.253
H3255,0.676,0.787,0.854,0.792,0.441,0.25,0.214,0.247,0.264,0.204,0.978,0.896,1.05,0.746,0.527,0.624,0.586,0.585,0.647,0.474
HARA,1.19,1.16,1.18,0.764,0.224,0.728,0.873,1.08,0.626,0.179,0.401,0.34,0.292,0.26,0.199,0.691,0.497,0.624,0.584,0.41
HCC-15,1.16,1.18,1.03,0.788,1.11,0.952,0.949,0.648,0.811,0.827,1.18,1.29,1.3,1.31,1.36,0.652,0.689,0.633,0.552,0.561
HCC-44,0.91,1.11,0.923,0.882,0.796,1.01,1.15,1.1,0.8,0.968,0.889,1.01,1.02,0.964,1.05,0.887,1.06,1.04,0.969,0.964
HCC-78,0.482,0.567,0.556,0.511,0.39,0.841,0.92,0.786,0.641,0.245,0.515,0.647,0.648,0.563,0.386,0.733,0.729,0.783,0.675,0.492
IA-LM,0.823,0.886,0.678,0.532,0.32,0.927,0.624,0.581,0.44,0.225,,,,,,,,,,
LCLC-103H,1.03,1.2,1.18,0.841,1.16,,,,,,0.834,0.914,0.728,0.738,0.685,0.745,0.73,0.809,0.695,0.816
LK-2,,,,,,1.01,0.878,0.823,0.757,0.605,0.303,0.408,0.33,0.315,0.209,0.323,0.337,0.254,0.272,0.23
NCI-H358,,,,,,0.465,0.477,0.446,0.46,0.378,0.417,,0.447,0.38,0.36,0.206,0.235,0.232,0.217,0.185

Cell Line,relative viability ([1]; first compound 0.05 µM),relative viability ([1]; first compound 0.1581 µM),relative viability ([1]; first compound 0.5 µM),relative viability ([1]; first compound 1.581 µM),relative viability ([1]; first compound 5 µM),relative viability ([2]; first compound 0.05 µM),relative viability ([2]; first compound 0.1581 µM),relative viability ([2]; first compound 0.5 µM),relative viability ([2]; first compound 1.581 µM),relative viability ([2]; first compound 5 µM),relative viability ([3]; first compound 0.05 µM),relative viability ([3]; first compound 0.1581 µM),relative viability ([3]; first compound 0.5 µM),relative viability ([3]; first compound 1.581 µM),relative viability ([3]; first compound 5 µM),relative viability ([4]; first compound 0.05 µM),relative viability ([4]; first compound 0.1581 µM),relative viability ([4]; first compound 0.5 µM),relative viability ([4]; first compound 1.581 µM),relative viability ([4]; first compound 5 µM)
NCI-H441,1.05,0.585,0.87,,0.448,,,,,,1.27,1.32,1.05,1.1,0.956,0.257,0.249,0.26,0.22,0.257
NCI-H520,0.702,0.609,0.385,0.471,0.344,0.819,0.685,0.649,0.705,0.707,,,,,,0.528,0.543,0.57,0.527,0.306
NCI-H522,,,,,,,,,,,0.616,0.812,0.882,0.763,0.748,0.675,0.619,0.664,0.669,0.642
NCI-H661,0.805,0.781,0.698,0.731,0.587,0.441,0.503,0.518,0.48,0.324,,,,,,0.551,0.578,0.529,0.462,0.373
NCI-H1299,0.942,1.04,0.994,1.03,0.985,0.982,0.976,0.923,0.767,0.757,,,,,,,,,,
NCI-H1395,,,,,,1.01,0.634,0.756,0.833,0.397,0.397,0.393,0.372,0.372,0.351,0.761,0.554,0.63,0.501,0.378
NCI-H1563,0.887,0.74,0.742,0.805,0.706,0.941,0.861,0.888,0.859,0.888,,,,,,,,,,
NCI-H1648,,,,,,,,,,,0.607,0.635,0.717,0.649,0.637,0.383,0.483,0.487,0.467,0.504
NCI-H1650,0.185,0.171,0.215,0.189,0.196,0.854,0.882,0.711,0.64,0.428,,,,,,0.445,0.478,0.373,0.445,0.3
NCI-H1703,0.231,0.261,0.19,0.132,0.138,1.18,0.454,0.481,0.205,0.124,0.0942,0.119,0.139,0.102,0.098,,,,,
NCI-H1793,,,,,,0.709,0.926,0.689,0.753,0.259,0.598,0.466,0.422,0.397,0.183,0.532,0.543,0.542,0.498,0.178
NCI-H1944,,,,,,0.823,0.832,0.761,0.605,0.577,0.608,0.491,0.466,0.423,0.341,0.439,0.468,0.448,0.482,0.356
NCI-H2009,1.01,1.06,0.972,0.834,0.826,0.975,1.06,0.865,0.798,0.794,,,,,,0.384,0.369,0.377,0.37,0.387
NCI-H2023,1.04,0.923,0.733,0.235,0.147,0.978,0.739,0.416,0.258,0.127,,,,,,0.228,0.219,0.21,0.167,0.127
NCI-H2170,,,,,,0.26,0.252,0.289,0.282,0.286,0.923,0.919,0.753,0.822,0.973,0.503,0.491,0.459,0.473,0.516
NCI-H2228,1.1,1.1,0.943,0.705,0.521,1.54,1.14,1.2,0.493,0.378,,,,,,,,,,
NCI-H2342,,,,,,,,,,,0.493,0.491,0.542,0.487,0.29,0.728,0.731,0.696,0.639,0.742
SK-LU-1,1.08,,0.866,0.486,0.202,0.871,0.585,0.758,0.321,0.19,,,,,,0.788,0.586,0.537,0.363,0.255
SK-MES-1,,,,,,0.491,0.544,0.514,0.392,0.431,,,,,,0.356,0.413,0.336,0.355,0.204
SW 1573,1.17,1.29,1.08,0.906,1.02,1.14,1.22,1.15,1.01,1.1,,,,,,0.567,0.498,0.455,0.462,0.517
UMC-11,0.72,0.961,0.558,0.476,0.437,1.09,1,0.699,0.624,0.463,,,,,,0.692,0.536,0.689,0.492,0.373

# From the supplement of paper PMC10307832
